In ChEMBL document CHEMBL1201862, “PubChem BioAssay data set” (2004):
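Interpolation was linear, between the two tested concentrations surrounding the appropriate level; five concentrations were tested over 48 hours in 96-well plates. GI50: concentration for 50% inhibition of growth.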 The source made the active and inactive calls. No stated cut-off is given here; in the data, active = GI50 up to about 1.1 µM and inactive = higher.

Key:
Test in all cases: growth of human tumour cells (NCI), 48 h
786-0 = test system: 786-0
A498 = test system: A498
A549 = test system: A549
ACHN = test system: ACHN
CAKI-1 = test system: CAKI-1
CCRF-CEM = test system: CCRF-CEM
COLO 205 = test system: COLO 205
DLD-1 = test system: DLD-1
DMS-114 = test system: DMS-114
DMS-273 = test system: DMS-273
EKVX = test system: EKVX
HCC 2998 = test system: HCC 2998
HCT-116 = test system: HCT-116
HCT-15 = test system: HCT-15
HL-60 = test system: HL-60
HOP-18 = test system: HOP-18
HOP-62 = test system: HOP-62
HOP-92 = test system: HOP-92
HT-29 = test system: HT-29
IGROV-1 = test system: IGROV-1
K562 = test system: K562
KM-20L2 = test system: KM-20L2
KM12 = test system: KM12
LOX IMVI = test system: LOX IMVI
LXFL 529 = test system: LXFL 529
M14 = test system: M14
M19-MEL = test system: M19-MEL
MOLT-4 = test system: MOLT-4
Malme-3M = test system: Malme-3M
NCI-H226 = test system: NCI-H226
NCI-H23 = test system: NCI-H23
NCI-H460 = test system: NCI-H460
NCI-H522 = test system: NCI-H522
OVCAR-3 = test system: OVCAR-3
OVCAR-4 = test system: OVCAR-4
OVCAR-5 = test system: OVCAR-5
OVCAR-8 = test system: OVCAR-8
RPMI-8226 = test system: RPMI-8226
RXF 393 = test system: RXF 393
RXF 631 = test system: RXF 631
SF-268 = test system: SF-268
SF-295 = test system: SF-295
SF-539 = test system: SF-539
SK-MEL-28 = test system: SK-MEL-28
SK-MEL-2 = test system: SK-MEL-2
SK-MEL-5 = test system: SK-MEL-5
SK-OV-3 = test system: SK-OV-3
SN12C = test system: SN12C
SNB-19 = test system: SNB-19
SNB-75 = test system: SNB-75
SNB-78 = test system: SNB-78
SR = test system: SR
SW-620 = test system: SW-620
TK-10 = test system: TK-10
U-251 = test system: U-251
UACC-257 = test system: UACC-257
UACC-62 = test system: UACC-62
UO-31 = test system: UO-31
XF498 = test system: XF498

`O=C1C=Cc2c(-c3ccccc3)oc3cccc1c23` was tested, and the GI50 (786-0) was 23.7 µM (inactive), the GI50 (A498) was 15.4 µM (inactive) and the GI50 (A549) was 6.98 µM (inactive). For the same compound, the GI50 (ACHN) was 13.2 µM (inactive), the GI50 (CAKI-1) was 6.55 µM (inactive) and the GI50 (CCRF-CEM) was 15 µM (inactive). For the same compound, the GI50 (COLO 205) was 15.8 µM (inactive), the GI50 (DLD-1) was 13.2 µM (inactive) and the GI50 (DMS-114) was 17.8 µM (inactive). For the same compound, the GI50 (DMS-273) was 5.98 µM (inactive), the GI50 (EKVX) was 3.19 µM (inactive) and the GI50 (HCC 2998) was 25.6 µM (inactive). For the same compound, the GI50 (HCT-116) was 16.9 µM (inactive), the GI50 (HCT-15) was 5.97 µM and the GI50 (HL-60) was 9.12 µM (inactive). For the same compound, the GI50 (HOP-18) was 15 µM (inactive), the GI50 (HOP-62) was 13.8 µM (inactive) and the GI50 (HOP-92) was 13.4 µM (inactive). For the same compound, the GI50 (HT-29) was 23.4 µM (inactive), the GI50 (IGROV-1) was 15.8 µM (inactive) and the GI50 (K562) was 17.2 µM (inactive). For the same compound, the GI50 (KM-20L2) was 27.2 µM (inactive), the GI50 (KM12) was 28.5 µM (inactive) and the GI50 (LOX IMVI) was 11.2 µM (inactive). For the same compound, the GI50 (LXFL 529) was 22.8 µM (inactive), the GI50 (M14) was 30.5 µM (inactive) and the GI50 (M19-MEL) was 23 µM (inactive). The GI50 (MOLT-4) was 3.76 µM (inactive), the GI50 (Malme-3M) was 37 µM (inactive) and the GI50 (NCI-H226) was 11.3 µM (inactive). For the same compound, the GI50 (NCI-H23) was 16.4 µM (inactive), the GI50 (NCI-H460) was 5.07 µM (inactive) and the GI50 (NCI-H522) was 15.3 µM (inactive). For the same compound, the GI50 (OVCAR-3) was 20.9 µM (inactive), the GI50 (OVCAR-4) was 40.7 µM (inactive) and the GI50 (OVCAR-5) was 26.4 µM (inactive). For the same compound, the GI50 (OVCAR-8) was 9.31 µM (inactive), the GI50 (RPMI-8226) was 3.97 µM (inactive) and the GI50 (RXF 393) was 24.1 µM (inactive). For the same compound, the GI50 (RXF 631) was 10.4 µM (inactive), the GI50 (SF-268) was 21.1 µM (inactive) and the GI50 (SF-295) was 25.7 µM (inactive). For the same compound, the GI50 (SF-539) was 12 µM (inactive), the GI50 (SK-MEL-28) was 56.9 µM (inactive) and the GI50 (SK-MEL-2) was 67.1 µM (inactive). For the same compound, the GI50 (SK-MEL-5) was 20.5 µM (inactive), the GI50 (SK-OV-3) was 24.4 µM (inactive) and the GI50 (SN12C) was 9.82 µM (inactive). For the same compound, the GI50 (SNB-19) was 24 µM (inactive), the GI50 (SNB-75) was 4.33 µM (inactive) and the GI50 (SNB-78) was 48.3 µM (inactive). The GI50 (SR) was 10.1 µM (inactive), the GI50 (SW-620) was 18.7 µM (inactive) and the GI50 (TK-10) was 39.7 µM (inactive). The GI50 (U-251) was 8.91 µM (inactive), the GI50 (UACC-257) was 35.4 µM (inactive) and the GI50 (UACC-62) was 11.2 µM (inactive). The GI50 (UO-31) was 6.35 µM (inactive) and the GI50 (XF498) was 7.28 µM (inactive).

`COC(=O)CC1CC2(C(=O)OC)c3[nH]c4ccccc4c3CCN2C1=O` (configuration not stated) was tested, and the GI50 (786-0) was > 100 µM (inactive), the GI50 (A498) was > 100 µM (inactive) and the GI50 (A549) was > 100 µM (inactive). For the same compound, the GI50 (ACHN) was > 100 µM (inactive), the GI50 (CAKI-1) was > 100 µM (inactive) and the GI50 (CCRF-CEM) was > 100 µM (inactive). For the same compound, the GI50 (COLO 205) was > 100 µM (inactive), the GI50 (DLD-1) was > 100 µM (inactive) and the GI50 (DMS-114) was > 100 µM (inactive). The GI50 (DMS-273) was > 100 µM (inactive), the GI50 (EKVX) was > 100 µM (inactive) and the GI50 (HCC 2998) was > 100 µM (inactive). For the same compound, the GI50 (HCT-116) was > 100 µM (inactive), the GI50 (HCT-15) was over 100 µM and the GI50 (HL-60) was > 100 µM (inactive). For the same compound, the GI50 (HOP-18) was > 100 µM (inactive), the GI50 (HOP-62) was > 100 µM (inactive) and the GI50 (HOP-92) was > 100 µM (inactive). The GI50 (HT-29) was > 100 µM (inactive), the GI50 (IGROV-1) was > 100 µM (inactive) and the GI50 (K562) was > 100 µM (inactive). The GI50 (KM-20L2) was > 100 µM (inactive), the GI50 (KM12) was > 100 µM (inactive) and the GI50 (LOX IMVI) was > 100 µM (inactive). For the same compound, the GI50 (LXFL 529) was > 100 µM (inactive), the GI50 (M14) was > 100 µM (inactive) and the GI50 (M19-MEL) was > 100 µM (inactive). The GI50 (MOLT-4) was > 100 µM (inactive), the GI50 (Malme-3M) was > 100 µM (inactive) and the GI50 (NCI-H226) was > 100 µM (inactive). The GI50 (NCI-H23) was > 100 µM (inactive), the GI50 (NCI-H460) was > 100 µM (inactive) and the GI50 (NCI-H522) was > 100 µM (inactive). The GI50 (OVCAR-3) was > 100 µM (inactive), the GI50 (OVCAR-4) was > 100 µM (inactive) and the GI50 (OVCAR-5) was > 100 µM (inactive). The GI50 (OVCAR-8) was > 100 µM (inactive), the GI50 (RXF 393) was > 100 µM (inactive) and the GI50 (RXF 631) was 17.5 µM (inactive). The GI50 (SF-268) was > 100 µM (inactive), the GI50 (SF-295) was > 100 µM (inactive) and the GI50 (SF-539) was > 100 µM (inactive). The GI50 (SK-MEL-28) was > 100 µM (inactive), the GI50 (SK-MEL-2) was > 100 µM (inactive) and the GI50 (SK-MEL-5) was > 100 µM (inactive). For the same compound, the GI50 (SK-OV-3) was > 100 µM (inactive), the GI50 (SN12C) was > 100 µM (inactive) and the GI50 (SNB-19) was > 100 µM (inactive). For the same compound, the GI50 (SNB-75) was > 100 µM (inactive), the GI50 (SNB-78) was > 100 µM (inactive) and the GI50 (SR) was > 100 µM (inactive). For the same compound, the GI50 (SW-620) was > 100 µM (inactive), the GI50 (TK-10) was > 100 µM (inactive) and the GI50 (U-251) was > 100 µM (inactive). For the same compound, the GI50 (UACC-257) was > 100 µM (inactive), the GI50 (UACC-62) was > 100 µM (inactive) and the GI50 (UO-31) was > 100 µM (inactive). The GI50 (XF498) was > 100 µM (inactive).
